In general, IC50 refers to the point on the concentration scale where inhibition reaches its midpoint. For orientation: Cmax means the highest concentration seen after dosing. By Solubility is commonly meant the dissolved amount per volume that the medium holds.

Series [1] concerns T1, μ-calpain.
T1 construct: μ-calpain (derived from human red blood cells; available from Cosmo Bio Co. Ltd.); purchased Cosmo Bio Co. Ltd; host or cells: purified from human red blood cells
The format is biochemical. The settings on record: μ-calpain derived from human red blood cells; 30° C., 60 minutes; read-out: Enzyme inhibitory activity μ-calpain (IC50). How it is done:
(1) Measurement of Inhibitory Activity Against μ-Calpain and m-Calpain
The inhibitory activity against μ-calpain and m-calpain was assayed according to the method described in Anal. Biochem. 1993, vol. 208, p. 387-392. That is, to 2.5 μL of a DMSO solution containing a varying concentration of the test sample in a 96-well plate was added 200 μL of a reaction solution containing 0.5 mg/mL casein, 50 mM Tris-HCl buffer (pH 7.4), 20 mM dithiothreitol and 1.0 nmol μ-calpain (derived from human red blood cells; available from Cosmo Bio Co. Ltd.) or m-calpain (derived from porcine kidney; available from Cosmo Bio Co. Ltd.). After 20 mM aqueous calcium chloride (50 μL) was added thereto, the mixture was incubated at 30° C. for 60 minutes. Then, 100 μL of the reaction solution was transferred to another 96-well plate, and purified water (50 μL) and 50% aqueous solution (100 μL) of Protein Assay Dye Reagent (available from Bio-Rad Laboratories, Inc.; catalogue No. 500-600) were added thereto. The reaction mixture was allowed to stand at room temperature for 15 minutes, and its absorbance was measured at 595 nm.
The absorbance of a reaction mixture prepared in the same manner as mentioned above, except that a DMSO solution contained no sample, was used as a control value, and that of a reaction mixture prepared in the same manner as mentioned above, except that 1 mM aqueous EDTA solution (50 μL) was used in place of 20 mM aqueous calcium chloride, was used as a blank value. […] Inhibition rate (%)={1−(measured value minus blank value)/(control value minus blank value)}×100

A short description of series [2]: Partition coefficient using IAM column. The format is physicochemical. The settings on record: IAM Fast Screening Mini-Column; Dulbecco's phosphate buffer (pH 7.4). The procedure: Analysis by HPLC system was carried out under the conditions given below, and retention time of each substance was measured. • Column: IAM Fast Screening Mini-Column (Regis Technologies, Inc.) • Mobile phase: Dulbecco's phosphate buffer (pH 7.4) • Detection wavelength: 250 nm • Column temperature: room temperature • Injection amount: 5.0 to 20 μL • Flow rate: 0.5 mL/min • Sample solution: 5 mg of sample was dissolved in 100 μL of acetonitrile, and a mobile phase was added to make 1 mL of a sample solution.
The measured value was inserted into the following formula, and the partition coefficient (K′ IAM) was calculated. k′IAM=(tR−t0)/t0 t0: retention time of the peak derived from acetonitrile tR: retention time of the peak of the sample

The nature of series [3]: Transportation rate into blood after oral administration. Type of series: in vivo, Macaca fascicularis (crab-eating monkey). The settings on record: cynomolgus monkey, 10 mg/kg, Macaca fascicularis, plasma; for AUC(0-t): read-out: AUC 0→4 hr. The procedure: The compound of the present invention was administered orally to Macaca fascicularis (crab-eating monkey) at a dose of 10 mg/kg. The blood was collected with the lapse of time, and the concentration of each compound in the plasma was measured.

Series [4] can be described thus: Solubility in 10 mM phosphate buffer (pH 7.0). The format is physicochemical. How it is done:
Solubility of the compounds of the present invention in 10 mM phosphate buffer (pH 7.0) was measured.

Values after ≈ are worked out from the molar mass of the structure shown.

Regarding `COCCOCCOC(=O)N[C@@H](CC(C)C)C(=O)NC(Cc1ccccc1)C(=O)C(N)=O` (mixture of isomers) [Compound 23, ((1S)-1-((((1RS)-3-amino-1-benzyl-2,3-dioxopropyl)amino)carbonyl)-3-methylbutyl)carbamic acid 5-methoxy-3-oxapentyl ester], the half-inhibitory concentration (IC50) in series [1] is 190 nM.
On the same count and under the same terms, the result for `CCNC(=O)C(=O)[C@H](Cc1ccccc1)NC(=O)[C@H](CC(C)C)NC(=O)OCCOC` [Compound 1, ((1S)-1-((((1S)-1-Benzyl-2,3-dioxo-3-(ethylamino)propyl)amino)carbonyl)-3-methylbutyl)carbamic acid 2-methoxyethyl ester] reads 170 nM; that for `CCNC(=O)C(=O)[C@H](Cc1ccccc1)NC(=O)[C@H](CC(C)C)NC(=O)O[C@H]1CCOC1` [Compound 2, ((1S)-1-((((1S)-1-Benzyl-2,3-dioxo-3-(ethylamino)propyl)amino)carbonyl)-3-methylbutyl)carbamic acid (3S)-tetrahydrofuran-3-yl ester], 150 nM; that for `CCNC(=O)C(=O)[C@H](Cc1ccccc1)NC(=O)[C@H](CC(C)C)NC(=O)OC1CCOCC1` [Compound 3, ((1S)-1-((((1S)-1-Benzyl-2,3-dioxo-3-(ethylamino)propyl)amino)carbonyl)-3-methylbutyl)carbamic acid tetrahydro-4H-pyran-4-yl ester], 250 nM.
The same measure, in the same setting: then `CC(C)C[C@H](NC(=O)O[C@H]1CCOC1)C(=O)N[C@@H](Cc1ccccc1)C(=O)C(=O)NC1CC1` [Compound 5, ((1S)-1-((((1S)-1-Benzyl-3-(cyclopropylamino)-2,3-dioxo-propyl)amino)carbonyl)-3-methylbutyl)carbamic acid (3S)-tetrahydrofuran-3-yl ester], with 90 nM; and `CC(C)C[C@H](NC(=O)OC1CCOCC1)C(=O)N[C@@H](Cc1ccccc1)C(=O)C(=O)NC1CC1` [Compound 6, ((1S)-1-((((1S)-1-Benzyl-3-cyclopropylamino-2,3-dioxo-propyl)amino)carbonyl)-3-methylbutyl)carbamic acid tetrahydro-4H-pyran-4-yl ester], with 120 nM.
For `CCCNC(=O)C(=O)[C@H](Cc1ccccc1)NC(=O)[C@H](CC(C)C)NC(=O)OCCOC` [Compound 7], the IC50 in series [1] came out at 100 nM.
Consider `COCCOC(=O)N[C@@H](CC(C)C)C(=O)N[C@@H](Cc1ccccc1)C(=O)C(=O)NC1CCC1` [Compound 8, ((1S)-1-((((1S)-1-Benzyl-2,3-dioxo-3-(cyclobutylamino)propyl)amino)carbonyl)-3-methylbutyl)carbamic acid 2-methoxyethyl ester], for which the IC50 in series [1] worked out at 170 nM.
Still for that read-out and setting: the result for `CCCCNC(=O)C(=O)[C@H](Cc1ccccc1)NC(=O)[C@H](CC(C)C)NC(=O)OCCOC` [Compound 9, ((1S)-1-((((1S)-1-Benzyl-3-butylamino-2,3-dioxo-propyl)amino)carbonyl)-3-methylbutyl)carbamic acid 2-methoxyethyl ester] reads 100 nM; that for `COCCOC(=O)N[C@@H](CC(C)C)C(=O)N[C@@H](Cc1ccccc1)C(=O)C(=O)NCC(F)(F)F` [Compound 10, ((1S)-1-((((1S)-1-Benzyl-2,3-dioxo-3-(2,2,2-trifluoroethylamino)propyl)amino)carbonyl)-3-methylbutyl)carbamic acid 2-methoxyethyl ester], 450 nM; that for `COCCOC(=O)N[C@@H](CC(C)C)C(=O)N[C@@H](Cc1ccccc1)C(=O)C(=O)NC1Cc2ccccc2C1` [Compound 11, ((1S)-1-((((1S)-1-Benzyl-2,3-dioxo-3-(2-indanylamino)propyl)amino)carbonyl)-3-methylbutyl)carbamic acid 2-methoxyethyl ester], 170 nM.
The same measure, in the same setting: then `COCCNC(=O)C(=O)[C@H](Cc1ccccc1)NC(=O)[C@H](CC(C)C)NC(=O)OCCOC` [Compound 12, ((1S)-1-((((1S)-1-Benzyl-2,3-dioxo-3-(2-methoxyethylamino)propyl)amino)carbonyl)-3-methylbutyl)carbamic acid 2-methoxyethyl ester], with 180 nM.
Same read-out and setting: then `CCNC(=O)C(=O)[C@H](CCc1ccccc1)NC(=O)[C@H](CC(C)C)NC(=O)OCCOC` [Compound 13, ((1S)-1-((((1S)-2,3-Dioxo-3-ethylamino-1-(phenylethyl)propyl)amino)carbonyl)-3-methylbutyl)carbamic acid 2-methoxyethyl ester], with 300 nM; and `CCNC(=O)C(=O)[C@H](CCc1ccccc1)NC(=O)[C@H](CC(C)C)NC(=O)O[C@H]1CCOC1` [Compound 14, ((1S)-1-((((1S)-2,3-Dioxo-3-ethylamino-1-(phenylethyl)propyl)amino)carbonyl)-3-methylbutyl)carbamic acid (3S)-tetrahydrofuran-3-yl ester], with 160 nM.
Turning to `COCCOC(=O)N[C@@H](CC(C)C)C(=O)N[C@@H](CCc1ccccc1)C(=O)C(=O)NC1CC1` [Compound 15, ((1S)-1-((((1S)-2,3-Dioxo-3-cyclopropylamino-1-(phenylethyl)propyl)amino)carbonyl)-3-methylbutyl)carbamic acid 2-methoxyethyl ester], the IC50 in series [1] came to 180 nM.
The same measure, in the same setting: then `CC(C)C[C@H](NC(=O)O[C@H]1CCOC1)C(=O)N[C@@H](CCc1ccccc1)C(=O)C(=O)NC1CC1` [Compound 16, ((1S)-1-((((1S)-2,3-Dioxo-3-cyclopropylamino-1-(phenylethyl)propyl)amino)carbonyl)-3-methylbutyl)carbamic acid (3S)-tetrahydro-furan-3-yl ester], with 140 nM.
As to `COCCOCCOCCOC(=O)N[C@@H](CC(C)C)C(=O)N[C@@H](Cc1ccccc1)C(=O)C(=O)NC1CC1` [Compound 18, ((1S)-1-((((1S)-1-Benzyl-2,3-dioxo-3-(cyclopropylamino)propyl)amino)carbonyl)-3-methylbutyl)carbamic acid 8-methoxy-3,6-dioxaoctyl ester], in series [2], the “IAM (Log k′IAM)” value was determined as 1.38. Also, in series [3], the highest concentration (Cmax) amounted to 660 nM and the AUC(0-t) was determined as 1.6 µM·h. In series [4], this molecule gave a Solubility of 5400 µg/mL (≈ 10.1 mM).
In the same order, the values of `COCCOCCOCCOCCOC(=O)N[C@@H](CC(C)C)C(=O)N[C@@H](Cc1ccccc1)C(=O)C(=O)NC1CC1` [Compound 19, ((1S)-1-((((1S)-1-Benzyl-2,3-dioxo-3-(cyclopropylamino)propyl)amino)carbonyl)-3-methylbutyl)carbamic acid 11-methoxy-3,6,9-trioxaundecanyl ester] are 1.44, 900 nM, 1.6 µM·h and 8300 µg/mL (≈ 14.3 mM).
`COCCOCCOCCOCCOCCOC(=O)N[C@@H](CC(C)C)C(=O)N[C@@H](Cc1ccccc1)C(=O)C(=O)NC1CC1` [Compound 20, ((1S)-1-((((1S)-1-Benzyl-2,3-dioxo-3-(cyclopropylamino)propyl)amino)carbonyl)-3-methylbutyl)carbamic acid 14-methoxy-3,6,9,12-tetraoxa-tetradecanyl ester]: the Solubility in series [4] came out at 16300 µg/mL (≈ 26.1 mM).
In the case of `COCCOC(=O)N[C@@H](CC(C)C)C(=O)N[C@@H](CC(C)C)C(=O)C(=O)NCCOc1ccccc1` [Compound 21, ((1S)-1-((((1S)-2,3-Dioxo-1-(2-methylpropyl)-3-(2-phenoxyethyl)aminopropyl)amino)carbonyl)-3-methylbutyl)carbamic acid 2-methoxyethyl ester], the IC50 in series [1] worked out at 80 nM.
Same read-out and setting: then `COCCOCCOC(=O)N[C@@H](CC(C)C)C(=O)N[C@@H](CC(C)C)C(=O)C(=O)NCCOc1ccccc1` [Compound 22, ((1S)-1-((((1S)-2,3-Dioxo-1-(2-methylpropyl)-3-(2-phenoxyethyl)aminopropyl)amino)carbonyl)-3-methylbutyl)carbamic acid 5-methoxy-3-oxapentyl ester], with 90 nM; and `CC(C)C[C@H](NC(=O)OCCc1ccccn1)C(=O)N[C@@H](Cc1ccccc1)C(=O)C(=O)NC1CC1` [Compound 24, ((1S)-1-((((1S)-1-benzyl-3-(cyclopropylamino)-2,3-dioxo-propyl)amino)carbonyl)-3-methylbutyl)carbamic acid 2-(pyridin-2-yl)ethyl ester], with 29 nM.

(Values after patent US7491705B2, “Alpha-ketoamide derivative, and production method and use thereof” (Senju Pharmaceutical Co., Ltd., priority 2003, dated 2009).)
